Publication PMC11802874, “The hypolipidemic effect of MI-883, the combined CAR agonist/ PXR antagonist, in diet-induced hypercholesterolemia model” (Nature Communications, 2025)
Where “and” joins values, the source holds several entries; their conditions need not be identical. Equal values may be shown once.

What was measured:
[1] = target: T1, human CAR ligand-binding domain (LBD) (Homo sapiens, UniProt Q14994); test: TR-FRET CAR coactivator assay (LanthaScreen); format: biochemical
T1 construct: purchased ThermoFisher Scientific PV4836

[2] = Mouse plasma protein binding; format: in vitro ADME
Source text: (§1) Plasma protein binding, and stability in human and mouse plasma have been tested as previously described.

HepaRG KO CAR cells = test: RT-qPCR mRNA expression in HepaRG KO CAR cells; format: cell-based, human; conditions: Phenobarbital 500 μM, CITCO 1 μM, MI 883 1 μM; ctrl = 1
Source text: HepaRG cells from Biopredic (Rennes, France) were cultivated and differentiated on the 12-well plates. […] Several batches of HepaRG KO CAR (CAR Knockout HepaRG™ Cells, MTOX1012-1VL, RRID:CVCL_B6AA) and PXR Knockout HepaRG™ Cells, MTOX1011-1VL, RRID:CVCL_B6AS) cells have been obtained from Sigma-Aldrich/Merck (Darmstadt, Germany) and cultivated according to the provider’s protocols. […] Experiments with HepaRG KO PXR and HepaRG KO CAR cells have been performed in duplicates at least in two independent experiments.
(§3) RT-qPCR was used to examine gene expression in 2D and 3D PHH, HepaRG cells, or in mouse liver or intestine (ileum) samples as we have described before[60]–[62].
All qRT-qPCR experiments including Trizol reagent (Life Technologies) total RNA isolation, reverse-transcription using a random hexaprimer, and the MMLV Reverse Transcriptase Kit (ThermoFisher Scientific) we have described before^19. qPCR was performed using TaqMan Fast Advanced Master Mix with TaqMan probes (ThermoFisher Scientific). […] The delta-delta method was used for gene expression quantification normalized to at least two reference genes. Three technical replicates were used for each reaction considering the MIQE guidelines. Data are presented as fold induction to vehicle-treated cells/animals.

[3] = test system: primary human hepatocytes (PHH); test: RT-qPCR mRNA expression in 2D primary human hepatocytes
Source text: The cells were cultivated as 2D monolayers according to the manufacturer’s protocol.
as §3

[4] = Metabolic stability in mouse liver S9 fraction; conditions: male, CD-1, mouse, liver S9 fraction
Protocol: (§2) Shimadzu HPLC system including vacuum degasser, gradient pumps, reverse phase HPLC column, column oven, and autosampler with an API 4000 QTRAP mass spectrometer (Applied Biosystems/MDS Sciex (AB Sciex) with Turbo V ion source and TurboIonspray interface were used. The reference compound midazolam, which is metabolized both by phase I and phase II enzymes, was used. The elimination constant (kel), half-life (t1/2), and intrinsic clearance (Clint) were determined[19] (Table S1).

human CAR variant 3 = target: T2, human CAR variant 3 (Homo sapiens, UniProt Q14994, DEL233-236); test: CAR3 luciferase reporter assay (CYP2B6-luc) in HepG2 cells; format: cell-based
T2 construct: host or cells: HepG2
T2 sequence (Q14994 with tags, fused parts or gaps isoform Q14994-8 DEL233-236): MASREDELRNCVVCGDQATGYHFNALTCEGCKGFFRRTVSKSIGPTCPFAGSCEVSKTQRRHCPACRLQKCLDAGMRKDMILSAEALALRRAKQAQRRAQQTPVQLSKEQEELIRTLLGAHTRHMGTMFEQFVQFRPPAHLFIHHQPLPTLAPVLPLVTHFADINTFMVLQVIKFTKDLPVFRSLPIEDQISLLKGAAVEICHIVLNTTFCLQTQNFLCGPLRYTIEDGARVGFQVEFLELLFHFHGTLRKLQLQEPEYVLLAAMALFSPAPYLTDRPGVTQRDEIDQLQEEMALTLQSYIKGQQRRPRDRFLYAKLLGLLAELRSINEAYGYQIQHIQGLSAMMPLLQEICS
T2 sequence (P19793 1-462 partner): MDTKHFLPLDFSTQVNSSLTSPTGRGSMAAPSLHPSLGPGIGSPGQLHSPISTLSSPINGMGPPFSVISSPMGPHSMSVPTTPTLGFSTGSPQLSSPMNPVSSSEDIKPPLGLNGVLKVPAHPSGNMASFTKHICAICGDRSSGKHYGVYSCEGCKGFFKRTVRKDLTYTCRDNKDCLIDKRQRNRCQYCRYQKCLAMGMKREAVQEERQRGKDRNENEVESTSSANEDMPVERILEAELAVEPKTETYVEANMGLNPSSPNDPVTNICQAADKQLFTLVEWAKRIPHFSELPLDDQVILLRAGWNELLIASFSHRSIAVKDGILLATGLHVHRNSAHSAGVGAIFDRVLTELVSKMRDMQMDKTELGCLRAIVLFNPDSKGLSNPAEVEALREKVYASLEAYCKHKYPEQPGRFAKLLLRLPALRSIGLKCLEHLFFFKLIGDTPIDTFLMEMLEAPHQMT
Protocol: CAR3 luciferase reporter assay (with CYP2B6-luc) was performed in human hepatocellular carcinoma HepG2 cells as we described[19] For the CAR3 assay (Fig. 1d), a CYP2B6-luc reporter plasmid (originally entitled B-1.6k/PB/XREM) was kindly donated by Dr. Hongbing Wang (University of Maryland School of Pharmacy, Baltimore, MD, USA). All expression vectors are described in Supplementary, Chapter 4).
Cells were treated for 24 h with MI-883 in a range of concentration from 0.1 nM to 30 µM (n = 3). The half maximal effective concentration (EC50) to activate CAR or inhibit PXR (IC50) in the assays was calculated from at least eight points of the dose-response curves using the GraphPad Prism software.

HepaRG cells = test: RT-qPCR mRNA expression in differentiated HepaRG cells; conditions: Phenobarbital 500 μM, CITCO 1 μM, MI 883 1 μM; ctrl = 1
[5] = Stability in mouse plasma; format: in vitro ADME; conditions: read-out: Stability in mouse plasma, t1/2
Source text: as §1

[6] = Metabolic stability in human liver S9 fraction; conditions: human, liver S9 fraction
Protocol: as §2
Supplementary Figure 1. […] Test compounds (1 μM, final DMSO concentration 1%) were incubated at 37 °C with shaking at 100 rpm. Four time points over 120 minutes have been analyzed. The reactions were stopped by adding 420 μL of acetonitrile-water mixture (90:10). Supernatants were analyzed by the HPLC system coupled with a tandem mass spectrometer. The percentage (in % of initial concertation) of the test compounds remaining after incubation in plasma and their half-lives (t1/2) were calculated. […] The stability of the compound was tested in human liver S9 fraction. Cofactors were used such as UDPGA (for glucuronidation), PAPS (for sulfation), and reduced glutathione (for conjugation of GSH). Compounds were tested in triplicate with or without NADPH. Propantheline and midazolam were used as unstable control compounds in the experiments. Data represent the means±S.D. from at least three independent samples.

[7] = test system: humanized PXR-CAR-CYP3A4/3A7 mice; test: Hepatic induction study in humanized PXR-CAR-CYP3A4/3A7 mice (i.p.); format: in vivo, mouse; conditions: single agents i.p.: Rif 3×5 mg/kg, CITCO 10 mg/kg two doses, MI-883 10 mg/kg 3 days
Source text: In the induction experiments, […] was sampled from the gallbladder.

GRα = GRα (Homo sapiens, UniProt P04150); test: Luciferase reporter gene assay GRα, HepG2; conditions: ligand: Dexamethasone 100 nM
Source text: Gal4-LBD constructs of tested nuclear receptors have been used together with pGL4.31[luc2P/GAL4UAS/Hygro] luciferase reporter construct and pRL-TK Renilla expression vector (both from Promega, Hercules, USA) in HepG2 cells transfected with Lipofectamine 2000 or 3000 reagents. For GRα and FXR receptors, full-length expression vectors have been used with pGRE-luc or pFXRE-luc luciferase constructs. For the aryl hydrocarbon receptor (AhR), p1A1-luc construct was used with only pRL-TK vector for transfection normalization. A dual reporter assay (Promega, Hercules, USA) was used to analyze both firefly and Renilla luciferase activities.
Gal4-LBD constructs of tested nuclear receptors have been used together with pGL5-luc luciferase reporter construct and pRL-TK Renilla expression vector in HepG2 cells transfected with Lipofectamine 2000 or 3000 reagents. For GRα and FXR receptors, full-length expression vectors have been used with pGRE-luc or pFXRE-luc luciferase constructs. For the aryl hydrocarbon receptor (AhR), p1A1-luc construct was used with only pRL-TK vector for transfection normalization. […] Bars represent means±S.D. (n=3).

[8] = single agent 5 μM: MI-883, CITCO (5 μM) alone

T1 sequence (Q14994 109-348 isoform Q14994-2 limits assumed, other chains not shown): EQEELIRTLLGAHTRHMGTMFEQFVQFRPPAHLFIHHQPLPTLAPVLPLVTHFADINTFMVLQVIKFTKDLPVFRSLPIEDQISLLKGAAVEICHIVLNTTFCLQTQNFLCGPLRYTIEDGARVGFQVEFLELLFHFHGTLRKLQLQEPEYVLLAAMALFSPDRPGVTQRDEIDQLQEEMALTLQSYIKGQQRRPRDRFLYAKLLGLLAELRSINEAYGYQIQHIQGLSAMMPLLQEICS
Chain of GRα (P04150 whole entry): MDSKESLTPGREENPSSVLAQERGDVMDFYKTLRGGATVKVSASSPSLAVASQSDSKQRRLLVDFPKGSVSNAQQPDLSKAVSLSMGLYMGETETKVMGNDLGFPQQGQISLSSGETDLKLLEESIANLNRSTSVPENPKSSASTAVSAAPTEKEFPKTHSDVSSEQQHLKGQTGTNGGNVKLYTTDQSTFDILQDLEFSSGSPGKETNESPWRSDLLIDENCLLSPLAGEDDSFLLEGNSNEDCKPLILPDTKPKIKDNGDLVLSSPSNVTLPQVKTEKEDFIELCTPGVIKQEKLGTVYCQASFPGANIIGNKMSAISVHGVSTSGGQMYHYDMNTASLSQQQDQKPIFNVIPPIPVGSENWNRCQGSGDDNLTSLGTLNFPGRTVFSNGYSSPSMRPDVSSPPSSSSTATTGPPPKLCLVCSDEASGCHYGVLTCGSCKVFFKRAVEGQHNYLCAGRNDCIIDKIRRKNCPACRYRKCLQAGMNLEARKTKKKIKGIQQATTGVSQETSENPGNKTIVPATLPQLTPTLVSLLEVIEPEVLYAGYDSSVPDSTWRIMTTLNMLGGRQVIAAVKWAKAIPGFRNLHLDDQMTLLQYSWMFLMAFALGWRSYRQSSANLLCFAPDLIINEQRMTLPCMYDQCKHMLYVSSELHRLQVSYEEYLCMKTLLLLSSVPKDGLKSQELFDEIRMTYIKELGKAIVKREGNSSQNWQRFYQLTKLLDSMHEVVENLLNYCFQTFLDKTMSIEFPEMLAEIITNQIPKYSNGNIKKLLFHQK

For `Clc1ccc(-c2nc3sccn3c2C=NOCc2ccc(Cl)c(Cl)c2)cc1` [CITCO, 6-(4-chlorophenyl)imidazo[2,1-b][1,3]thiazole-5-carbaldehyde-O-(3,4-dichlorobenzyl)oxime, reference compound], the “TR-FRET CAR Coactivator assay, mean signal (Fig. 1b)” value (“TR-FRET CAR Coactivator assay” below) ([1]; 100pM) was 1, the “TR-FRET CAR Coactivator assay” value ([1]; 1nM) was 1.176 and the “TR-FRET CAR Coactivator assay” value ([1]; 10nM) was 1.375. The “TR-FRET CAR Coactivator assay” value ([1]; 30nM) was 1.960, the “TR-FRET CAR Coactivator assay” value ([1]; 100nM) was 2.115 and the “TR-FRET CAR Coactivator assay” value ([1]; 0.5μM) was 2.111. For the same compound, the “TR-FRET CAR Coactivator assay” value ([1]; 1 μM) was 2.154, the “TR-FRET CAR Coactivator assay” value ([1]; 10 μM) was 2.134 and the “TR-FRET CAR Coactivator assay” value ([1]; 30 μM) was 2.146. For the same compound, the fraction unbound [2] was 0.02, the “CYP2B6 mRNA, RT-qPCR, HepaRG KO CAR (Fig. 1f), replicates” value (HepaRG KO CAR cells) was 1.15 and 1.05 and 0.84 and the “CYP2B6 mRNA, RT-qPCR, PHH (Fig. 1g), replicates” value ([3]; 1 mM, ctrl = 1) was 10.10 and 18.10 and 7.00. The “CYP2B6 mRNA in PHH 2 donors (Fig. 3c)” value [3, 8] was 11.1246 and 12.1237, the “CYP3A4 mRNA in PHH 2 donors (Fig. 3c)” value [3, 8] was 2.55 and 3.999 and the half-life [4] was 39.2 min. The microsomal CLint [4] was 9 µL/min/mg, the “CAR3 variant activation (Fig. 1d), replicates” value (shortened to “CAR3 variant activation”) (human CAR variant 3; concentration 0.01 (unit not given), HepG2, 24 h) was 0.85 and 0.95 and 1.03 and the “CAR3 variant activation” value (human CAR variant 3; concentration 0.1 (unit not given)) was 0.4 and 1 and 3.5. For the same compound, the “CAR3 variant activation” value (human CAR variant 3; concentration 1 (unit not given)) was 1.25 and 6.4 and 1.2, the “CAR3 variant activation” value (human CAR variant 3; concentration 10 (unit not given)) was 10 and 12.8 and 12 and the “CAR3 variant activation” value (human CAR variant 3; concentration 30 (unit not given)) was 20.7 and 11.1 and 15.3. The “CYP2B6 mRNA, RT-qPCR, HepaRG (Fig. 1f), replicates” value (HepaRG cells) was 6.95 and 5.3 and 5.5, the half-life [5] was over 120 min and the half-life at 2 µM [6] was 22.5 min. For the same compound, the microsomal CLint at 2 µM [6] was 15 µL/min/mg, the “hepatic CYP3A4 mRNA, hPXR/hCAR/CYP3A4/7 mice (Fig. 3e), individual animals” value [7] was 3.5706 and 5.153 and 1.198 and 3.457 and the “hepatic Cyp2b10 mRNA, hPXR/hCAR/CYP3A4/7 mice (Fig. 3e), individual animals” value [7] was 6.356 and 6.521 and 7.777 and 9.457.
In the case of `C[C@@H]1C[C@H]2[C@@H]3CCC4=CC(=O)C=C[C@]4(C)[C@@]3(F)[C@@H](O)C[C@]2(C)[C@@]1(O)C(=O)CO` [Dexamethasone], the “NRs assays: GRa (relative to ctrl, replicates)” value (GRα) is reported as 19.01 and 18.01 and 16.69.
